Measured values reported in patent publication US7432259B2, “Spiro-piperidine derivatives” (Hoffmann-La Roche Inc., priority 2006, dated 2008).

These compounds were tested against T1, human V1a receptor (Homo sapiens, UniProt P37288) (assay: human V1a receptor binding study (3H-Vasopressin SPA, membranes of transfected HEK293 cells)). Conditions: membranes of HEK293 cells transiently transfected with human V1a receptor, Ki by Cheng-Prussoff equation, read-out: pKi(hV1a) (converted).
T1 construct: expressed in transfected cells; host or cells: HEK293 cells, transiently transfected; cell membranes used
T1 sequence (P37288 whole entry): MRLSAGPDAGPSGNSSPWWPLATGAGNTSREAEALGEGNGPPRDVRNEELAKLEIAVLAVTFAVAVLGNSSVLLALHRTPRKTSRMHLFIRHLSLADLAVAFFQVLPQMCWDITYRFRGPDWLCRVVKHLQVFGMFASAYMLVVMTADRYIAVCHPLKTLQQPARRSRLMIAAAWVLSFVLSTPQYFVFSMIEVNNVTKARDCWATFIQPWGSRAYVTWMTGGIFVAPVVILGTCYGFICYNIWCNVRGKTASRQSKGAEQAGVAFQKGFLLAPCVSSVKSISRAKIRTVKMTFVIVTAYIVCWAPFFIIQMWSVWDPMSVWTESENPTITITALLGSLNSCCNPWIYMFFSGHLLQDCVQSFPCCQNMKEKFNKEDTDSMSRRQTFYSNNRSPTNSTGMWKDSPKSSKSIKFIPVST
Protocol: The human V1a receptor was cloned by RT-PCR from total human liver RNA. The coding sequence was subcloned in an expression vector after sequencing to confirm the identity of the amplified sequence. […] Cell membranes were prepared from HEK293 cells transiently transfected with the expression vector and grown in 20 liter fermenters with the following protocol.
50 g of cells were resuspended in 30 ml freshly prepared ice cold Lysis buffer (50 mM HEPES, 1 mM EDTA, 10 mM MgCl2 adjusted to pH=7.4+complete cocktail of protease inhibitor (Roche Diagnostics)). Homogenized with Polytron for 1 min and sonicated on ice for 2×2 minutes at 80%, intensity (Vibracell sonicator). The preparation was centrifuged 20 min at 500 g at 4° C., the pellet was discarded and the supernatant centrifuged 1 hour at 43,000 g at 4° C. (19,000 rpm). The pellet was resuspended in 12.5 ml Lysis buffer+12.5 ml Sucrose 20% and homogenized using a Polytron for 1-2 min. The protein concentration was determined by the Bradford method and aliquots were stored at −80° C. until use. For binding studies 60 mg Yttrium silicate SPA beads (Amersham) were mixed with an aliquot of membrane in binding buffer (50 mM Tris, 120 mM NaCl, 5 mM KCl, 2 mM CaCl2, 10 mM MgCl2) for 15 minutes with mixing. 50 ul of bead/membrane mixture was then added to each well of a 96 well plate, followed by 50 ul of 4 nM 3H-Vasopressin (American Radiolabeled Chemicals). For total binding measurement 100 ul of binding buffer were added to the respective wells, for non-specific binding 100 ul of 8.4 mM cold vasopressin and for compound testing 100 ul of a serial dilution of each compound in 2% DMSO. The plate was incubated 1 h at room temperature, centrifuged 1 min at 1000 g and counted on a Packard Top-Count. Non-specific binding counts were subtracted from each well and data was normalized to the maximum specific binding set at 100%. To calculate an IC 50 the curve was fitted using a non-linear regression model (XLfit) and the Ki was calculated using the Cheng-Prussoff equation.

Row | Ki [nM] | Compound
1 | 10.6 | N#CCn1c(C(=O)N2CCC3(CC2)OC(=O)Nc2ccccc23)cc2cc(Cl)ccc21 [Example 16, {5-Chloro-2-[(2-oxo-1,2-dihydro-1′H-spiro[3,1-benzoxazine-4,4′-piperidin]-1′-yl)carbonyl]-1H-indol-1-yl}acetonitrile]
2 | 47.3 | N#CCn1c(C(=O)N2CCC3(CC2)CC(=O)Nc2ccc(Br)cc23)cc2cc(Cl)ccc21 [Example 7, {2-[(6′-Bromo-2′-oxo-2′,3′-dihydro-1H,1′H-spiro[piperidine-4,4′-quinolin]-1-yl)carbonyl]-5-chloro-1H-indol-1-yl}acetonitrile]
3 | 29.9 | Cn1c(C(=O)N2CCC3(CC2)OC(=O)Nc2ccccc23)cc2cc(Cl)ccc21 [Example 14, 1′-[(5-Chloro-1-methyl-1H-indol-2-yl)carbonyl]spiro[3,1-benzoxazine-4,4′-piperidin]-2(1H)-one]
4 | 60.3 | N#CCn1c(C(=O)N2CCC3(CC2)OC(=O)Nc2ccccc23)cc2ccccc21 [Example 15, {2-[(2-Oxo-1,2-dihydro-1′H-spiro[3,1-benzoxazine-4,4′-piperidin]-1′-yl)carbonyl]-1H-indol-1-yl}acetonitrile]
